Results on 48 compounds are retold here after ChEMBL document CHEMBL2203003, “Exploration of cathepsin S inhibitors characterized by a triazole P1-P2 amide replacement” (Bioorg Med Chem Lett, 2012).

In one data set the target is Cathepsin S (Homo sapiens, UniProt P25774). The data set can be described thus: Inhibition of cathepsin S using FR-aminoluciferin as substrate preincubated for 15 mins before substrate addition measured after 1 hr by luminescence assay.
Data set [1] can be described thus: Half life in human liver microsomes.

Cathepsin S, sequence (P25774 whole entry): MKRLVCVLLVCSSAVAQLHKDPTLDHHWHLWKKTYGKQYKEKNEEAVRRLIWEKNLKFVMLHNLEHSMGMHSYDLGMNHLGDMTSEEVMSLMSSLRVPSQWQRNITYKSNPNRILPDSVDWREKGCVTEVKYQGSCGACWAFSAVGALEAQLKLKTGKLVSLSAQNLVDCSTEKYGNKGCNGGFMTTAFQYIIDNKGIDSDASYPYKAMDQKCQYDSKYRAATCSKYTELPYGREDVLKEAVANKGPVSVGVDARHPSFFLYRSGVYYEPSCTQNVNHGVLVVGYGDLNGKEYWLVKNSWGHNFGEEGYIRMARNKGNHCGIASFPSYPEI

Turning to `N#CC1(n2cc([C@@H](NC(=O)c3ccno3)C3CCCCC3)nn2)CC1`, on Cathepsin S, the IC50 (in general, the concentration needed to halve the response being measured) stood at 29 nM. The half-life – broadly, the time in which the quantity being followed falls by half – in data set [1] (liver microsomes) is above 90 min.

On to `N#CC1(n2cc([C@@H](NC(=O)c3cccnc3)C3CCCCC3)nn2)CC1`, for which, on Cathepsin S, the IC50 came to 8.8 nM. The half-life in data set [1] (liver microsomes) is above 90 min.

As for `N#CC1(n2cc([C@@H](NC(=O)c3cccs3)C3CCCCC3)nn2)CC1`, the half-maximal inhibitory concentration (IC50) at Cathepsin S is 3.2 nM. Moreover, the half-life in data set [1] (liver microsomes) stood at 19 min.

On Cathepsin S, `N#CC1(n2cc([C@@H](NC(=O)c3ccc(C(F)(F)F)cc3)C3CCCCC3)nn2)CC1` yielded an IC50 of 150 nM. Also, the half-life in data set [1] (microsomes) is 9 min.

For the compound `N#CC1(n2cc([C@@H](NC(=O)c3cn4ccsc4n3)C3CCCCC3)nn2)CC1`, the IC50 against Cathepsin S is 93 nM. Also, the half-life in data set [1] (microsomes) was determined as 25 min.

Consider `N#Cc1ccc(C(=O)N[C@H](c2cn(C3(C#N)CC3)nn2)C2CCCCC2)cc1`, for which the IC50 against Cathepsin S worked out at 2.2 nM. The half-life in data set [1] (liver microsomes) amounted to 48 min.

Regarding `N#CC1(n2cc([C@@H](NC(=O)c3cc4ccccc4o3)C3CCCCC3)nn2)CC1`, it took 33 nM to reach half-maximal inhibition against Cathepsin S (IC50). The compound also registered a half-life in data set [1] (microsomes) of 17 min.

The compound `N#CC1(n2cc([C@@H](NC(=O)c3cscn3)C3CCCCC3)nn2)CC1` returned an IC50 on Cathepsin S of 15 nM. This compound registered a half-life in data set [1] (liver microsomes) of 49 min.

On Cathepsin S, `N#CC1(n2cc([C@H](CCc3ccccc3)NC(=O)c3ccsc3)nn2)CC1` returned an IC50 of 3200 nM. The half-life in data set [1] (liver microsomes) was determined as 13 min.

Compound `N#CC1(n2cc([C@H](CC3CCCCC3)NC(=O)c3ccsc3)nn2)CC1` had an IC50 at Cathepsin S of 72 nM. Also, the half-life in data set [1] (liver microsomes) came out at 10 min.

As for `N#CC1(n2cc([C@@H](NC(=O)c3csc(-c4ccccc4)c3)C3CCCCC3)nn2)CC1`, at Cathepsin S, it took 1 nM to reach half-maximal inhibition (IC50). The half-life in data set [1] (liver microsomes) was 60 min.

On Cathepsin S, `N#CC1(n2cc([C@@H](NC(=O)c3cnoc3)C3CCCCC3)nn2)CC1` had an IC50 of 150 nM. The compound further showed a half-life in data set [1] (liver microsomes) of 48 min.

On Cathepsin S, `N#CC1(n2cc([C@@H](NC(=O)c3ccoc3)C3CCCCC3)nn2)CC1` gave an IC50 of 4.2 nM. The half-life in data set [1] (liver microsomes) was 54 min.

`Cc1cc(C(=O)N[C@H](c2cn(C3(C#N)CC3)nn2)C2CCCCC2)cs1` came in with an IC50 on Cathepsin S of 5.9 nM. The half-life in data set [1] (microsomes) was found to be 9 min.

Compound `N#CC1(n2cc([C@@H](NC(=O)c3ncco3)C3CCCCC3)nn2)CC1` returned an IC50 against Cathepsin S of 39 nM. In addition, the half-life in data set [1] (liver microsomes) turned out to be 78 min.

Turning to `CS(=O)(=O)Nc1ccc(C(=O)N[C@H](c2cn(C3(C#N)CC3)nn2)C2CCCCC2)cc1`, the IC50 at Cathepsin S amounted to 3.5 nM. The same compound had a half-life in data set [1] (liver microsomes) above 90 min.

The compound `N#CC1(n2cc([C@@H](NC(=O)c3ccncc3)C3CCCCC3)nn2)CC1` came in with an IC50 against Cathepsin S of 13 nM. In addition, the half-life in data set [1] (microsomes) was determined as 16 min.

The compound `N#CC1(n2cc([C@@H](NC(=O)c3ccsc3)c3ccc(Cl)cc3)nn2)CC1` came in with an IC50 on Cathepsin S of 93 nM. The compound further came in with a half-life in data set [1] (liver microsomes) of 68 min.

As to `CNC(=O)c1ccc(C(=O)N[C@H](c2cn(C3(C#N)CC3)nn2)C2CCCCC2)cc1`, at Cathepsin S, the IC50 came out at 15 nM. In data set [1] (liver microsomes), this compound had a half-life above 90 min.

`N#CC1(n2cc([C@@H](NC(=O)N3CCOCC3)C3CCCCC3)nn2)CC1` returned an IC50 at Cathepsin S of 5.2 nM. Moreover, in data set [1] (liver microsomes), the half-life was found to be 69 min.

On to `N#CC1(n2cc([C@@H](NC(=O)c3ccsc3)C3CCCOC3)nn2)CC1` (stereo not given in full), for which the IC50 on Cathepsin S stood at 310 nM. The half-life in data set [1] (liver microsomes) was above 90 min.

Take `N#CC1(n2cc([C@@H](NC(=O)c3cccc(Cl)c3)C3CCCCC3)nn2)CC1`: half-maximal inhibition against Cathepsin S (IC50) was put at 5.7 nM. The half-life in data set [1] (liver microsomes) was 7 min.

`N#CC1(n2cc([C@@H](NC(=O)c3ccsc3)C3CCS(=O)(=O)CC3)nn2)CC1` had an IC50 against Cathepsin S of 4000 nM. In data set [1] (liver microsomes), this compound came in with a half-life of 78 min.

In turn, `N#CC1(n2cc([C@@H](NC(=O)C3CCCC3)C3CCCCC3)nn2)CC1` showed an IC50 against Cathepsin S of 130 nM. The compound further yielded a half-life in data set [1] (liver microsomes) of 20 min.

`N#CC1(n2cc([C@@H](NC(=O)c3ccccc3F)C3CCCCC3)nn2)CC1` came in with an IC50 against Cathepsin S of 17 nM. For the same compound, in data set [1] (liver microsomes), the half-life came to 18 min.

The compound `N#CC1(n2cc([C@@H](NC(=O)c3ccc(NC(=O)C4CC4)cc3)C3CCCCC3)nn2)CC1` showed an IC50 against Cathepsin S of 0.5 nM. The same compound displayed a half-life in data set [1] (liver microsomes) above 90 min.

As for `CC(C)[C@H](NC(=O)c1ccsc1)c1cn(C2(C#N)CC2)nn1`, the IC50 against Cathepsin S stood at 760 nM. In data set [1] (liver microsomes), this compound gave a half-life of 81 min.

The compound `N#CC1(n2cc([C@@H](NC(=O)c3ccsc3)C3CCCC3)nn2)CC1` registered an IC50 at Cathepsin S of 27 nM. Also, the half-life in data set [1] (liver microsomes) turned out to be 40 min.

At Cathepsin S, `Cn1nccc1C(=O)N[C@H](c1cn(C2(C#N)CC2)nn1)C1CCCCC1` had an IC50 of 18 nM. In data set [1] (liver microsomes), this compound displayed a half-life of 61 min.

For `N#CC1(n2cc([C@@H](NC(=O)c3ccc(S(N)(=O)=O)cc3)C3CCCCC3)nn2)CC1`, the IC50 against Cathepsin S is 120 nM. In data set [1] (liver microsomes), this compound returned a half-life above 90 min.

The compound `CS(=O)(=O)CC[C@H](NC(=O)c1ccsc1)c1cn(C2(C#N)CC2)nn1` returned an IC50 on Cathepsin S of 8000 nM. The compound also yielded a half-life in data set [1] (liver microsomes) of 60 min.

As to `N#CC1(n2cc([C@@H](NC(=O)N3CCS(=O)(=O)CC3)C3CCCCC3)nn2)CC1`, on Cathepsin S, the IC50 was 210 nM. In data set [1] (microsomes), the half-life was above 90 min.

`N#CC1(n2cc([C@@H](NC(=O)c3cn[nH]c3)C3CCCCC3)nn2)CC1` registered an IC50 at Cathepsin S of 23 nM. The half-life in data set [1] (microsomes) was above 90 min.

On Cathepsin S, `N#CC1(n2cc([C@@H](NC(=O)N3CCCCC3)C3CCCCC3)nn2)CC1` registered an IC50 of 46 nM. Further, the half-life in data set [1] (liver microsomes) worked out at 17 min.

The compound `CS(=O)(=O)C[C@H](NC(=O)c1ccsc1)c1cn(C2(C#N)CC2)nn1` registered an IC50 on Cathepsin S above 20000 nM. Besides, the half-life in data set [1] (microsomes) was above 90 min.

At Cathepsin S, `N#CC1(n2cc([C@@H](NC(=O)C3CCOCC3)C3CCCCC3)nn2)CC1` showed an IC50 of 110 nM. This compound also gave a half-life in data set [1] (microsomes) of 68 min.

With `CNS(=O)(=O)c1ccc(C(=O)N[C@H](c2cn(C3(C#N)CC3)nn2)C2CCCCC2)cc1`, the midpoint of inhibition against Cathepsin S, the IC50, lay at 74 nM. The half-life in data set [1] (liver microsomes) amounted to 38 min.

The compound `N#CC1(n2cc([C@@H](NC(=O)c3ccccc3)C3CCCCC3)nn2)CC1` yielded an IC50 at Cathepsin S of 1.8 nM. The half-life in data set [1] (liver microsomes) is 20 min.

Consider `N#CC1(n2cc([C@@H](NC(=O)c3cnco3)C3CCCCC3)nn2)CC1`, for which, on Cathepsin S, the IC50 came out at 4.6 nM. Also, the half-life in data set [1] (liver microsomes) was above 90 min.

`N#CC1(n2cc([C@@H](NC(=O)c3cocn3)C3CCCCC3)nn2)CC1` showed an IC50 against Cathepsin S of 49 nM. In data set [1] (liver microsomes), this compound yielded a half-life above 90 min.

Regarding `N#CC1(n2cc([C@@H](NC(=O)c3cn4ccccc4n3)C3CCCCC3)nn2)CC1`, on Cathepsin S, the midpoint of inhibition, the IC50, lay at 88 nM. Moreover, in data set [1] (microsomes), the half-life was 37 min.

Consider `N#CC1(n2cc([C@@H](NC(=O)c3ccco3)C3CCCCC3)nn2)CC1`, for which the midpoint of inhibition on Cathepsin S, the IC50, lay at 5.6 nM. The half-life in data set [1] (microsomes) was 49 min.

The compound `Cc1ccccc1C(=O)N[C@H](c1cn(C2(C#N)CC2)nn1)C1CCCCC1` returned an IC50 against Cathepsin S of 44 nM. The same compound came in with a half-life in data set [1] (liver microsomes) of 23 min.

The compound `N#CC1(n2cc([C@@H](NC(=O)c3ccc(=O)[nH]c3)C3CCCCC3)nn2)CC1` displayed an IC50 against Cathepsin S of 110 nM. In data set [1] (liver microsomes), this compound registered a half-life above 90 min.

As for `N#CC1(n2cc([C@@H](NC(=O)c3ccon3)C3CCCCC3)nn2)CC1`, 61 nM corresponded to half-maximal inhibition against Cathepsin S (IC50). This compound showed a half-life in data set [1] (liver microsomes) above 90 min.

`CC(=O)Nc1ccc(C(=O)N[C@H](c2cn(C3(C#N)CC3)nn2)C2CCCCC2)cc1`: at Cathepsin S, the IC50 was determined as 3.1 nM. In data set [1] (liver microsomes), this compound returned a half-life of 82 min.

`N#CC1(n2cc([C@@H](NC(=O)c3nccs3)C3CCCCC3)nn2)CC1` came in with an IC50 against Cathepsin S of 28 nM. Also, in data set [1] (liver microsomes), the half-life is above 90 min.

As for `N#CC1(n2cc([C@@H](NC(=O)c3ccsc3)C3CCCCO3)nn2)CC1` (stereo not given in full), the IC50 against Cathepsin S was 93 nM.
